Reference: article PMC6934184, “Selective DNA-PKcs inhibition extends the therapeutic index of localized radiotherapy and chemotherapy” (The Journal of Clinical Investigation, 2019)

Biological target: T1, NEK9 (Homo sapiens, UniProt Q8TD19)
T1 construct: purchased Thermo Fisher Scientific (Life Technologies) SelectScreen
Assay: SelectScreen Z'LYTE
Assay type: biochemical
Outline: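 SelectScreen broad panel; activity (Z'LYTE, Adapta) plus binding formats. ATP: Km app for CSF1R Z'LYTE; 10 for CAMK1 Adapta. Readout = % per kinase.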

T1 sequence (Q8TD19 whole entry): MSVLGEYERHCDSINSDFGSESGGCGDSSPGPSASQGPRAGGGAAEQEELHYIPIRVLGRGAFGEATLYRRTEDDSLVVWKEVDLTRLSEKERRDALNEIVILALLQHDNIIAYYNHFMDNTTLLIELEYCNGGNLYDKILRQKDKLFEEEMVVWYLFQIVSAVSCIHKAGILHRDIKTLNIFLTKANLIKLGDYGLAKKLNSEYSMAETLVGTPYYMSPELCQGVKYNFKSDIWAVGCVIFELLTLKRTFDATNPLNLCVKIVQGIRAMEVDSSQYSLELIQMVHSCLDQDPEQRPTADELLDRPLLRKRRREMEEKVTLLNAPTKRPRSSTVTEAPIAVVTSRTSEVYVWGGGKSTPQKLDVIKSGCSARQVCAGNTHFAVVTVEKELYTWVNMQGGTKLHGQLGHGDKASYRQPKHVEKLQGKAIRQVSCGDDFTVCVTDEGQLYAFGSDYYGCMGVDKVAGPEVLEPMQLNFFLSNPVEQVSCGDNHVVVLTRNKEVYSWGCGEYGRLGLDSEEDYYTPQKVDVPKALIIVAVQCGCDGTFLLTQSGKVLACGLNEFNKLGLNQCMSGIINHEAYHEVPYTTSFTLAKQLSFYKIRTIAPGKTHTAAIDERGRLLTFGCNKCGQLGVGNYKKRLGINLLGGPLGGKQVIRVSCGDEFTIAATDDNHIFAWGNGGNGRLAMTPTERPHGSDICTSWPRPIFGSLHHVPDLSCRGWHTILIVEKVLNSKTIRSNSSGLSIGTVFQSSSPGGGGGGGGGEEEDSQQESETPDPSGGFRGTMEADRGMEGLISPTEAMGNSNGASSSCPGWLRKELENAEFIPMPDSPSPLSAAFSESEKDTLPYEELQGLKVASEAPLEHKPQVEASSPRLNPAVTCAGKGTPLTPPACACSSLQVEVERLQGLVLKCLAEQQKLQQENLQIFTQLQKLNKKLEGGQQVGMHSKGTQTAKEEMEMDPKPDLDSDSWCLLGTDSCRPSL

CN(C(=O)CN1CCOCC1)c1ccc2sc3c(-c4cccc5c(=O)cc(N6CC7CCC(C6)O7)oc45)cccc3c2c1 [NU5455]
inhibition at 1 µM: -7.2%
